Patent publication US20150166523A1, “BRANCHED CHAIN ALKYL HETEROAROMATIC RING DERIVATIVE” (TAISHO PHARMACEUTICAL CO., LTD., priority 2012, published 2015)

Tests used:
[1] = molecular target: T1, human orexin-1 receptor (hOX1R) (Homo sapiens, UniProt O43613); experiment: Measurement of orexin antagonistic activity (intracellular Ca2+ fluorescence, FDSS) on hOX1R; format: cell-based; details: CHO cells forcibly expressing hOX1R; Fluo-4AM; ligand peptide (substituted human orexin-A) 300 pM; compound preincubated 30 minutes; read-out: IC50 Value OX1
T1 construct: expressed in transfected cells; host or cells: Chinese hamster ovary (CHO) cells
T1 sequence (O43613 1-425): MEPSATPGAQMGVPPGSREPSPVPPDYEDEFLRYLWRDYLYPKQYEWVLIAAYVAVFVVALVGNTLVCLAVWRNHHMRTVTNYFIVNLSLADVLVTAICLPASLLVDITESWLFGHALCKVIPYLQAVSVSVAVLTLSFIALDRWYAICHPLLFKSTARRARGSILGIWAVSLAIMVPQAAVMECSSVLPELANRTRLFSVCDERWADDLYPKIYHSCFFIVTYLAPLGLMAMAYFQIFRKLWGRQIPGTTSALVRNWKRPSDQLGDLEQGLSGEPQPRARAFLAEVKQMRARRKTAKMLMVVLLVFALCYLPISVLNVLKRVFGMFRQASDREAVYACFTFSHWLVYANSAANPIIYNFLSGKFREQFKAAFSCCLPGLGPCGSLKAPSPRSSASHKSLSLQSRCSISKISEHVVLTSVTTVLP
Description: (§1) The antagonistic activities of the test compounds on human orexin-1 receptor (hOX1R) and orexin-2 receptor (hOX2R) were measured by modifying from the method described in literature (Toshikatsu Okumura et al., Biochemical and Biophysical Research Communications, 280, 976-981, 2001). Chinese hamster ovary (CHO) cells forcibly expressing the hOX1R and hOX2R were seeded into a 96 well Black clear bottom plate (Nunc) at 20,000 cells per well, which were cultured in Ham's F-12 medium containing 0.1 mM MEM non-essential amino acids, 0.5 mg/mL G418, 10% fetal bovine serum (all by Invitrogen) for 16 hours under the conditions of 37° C., 5% CO2. After removing the medium, 100 μL of 0.5 μM Fluo-4AM ester (Dojin) in an assay buffer (25 mM HEPES (Dojin), Hank's balanced salt solution (Invitrogen), 0.1% bovine serum albumin, 2.5 mM probenecid, 200 μg/mL Amaranth (all by Sigma-Aldrich), pH 7.4) was added and the cells were incubated for 60 minutes at 37° C., 5% CO2. After removing the assay buffer containing fluo-4AM ester, the test compound was dissolved in dimethyl sulfoxide to be 10 mM and diluted with the assay buffer, 150 μL, of which was added and incubated for 30 minutes.
(§2) The reaction was measured for the fluorescence intensity of each well every second for 3 minutes using Functional Drug Screening System (FDSS; Hamamatsu Photonics K.K.), and the antagonistic activity was determined using the maximum fluorescence intensity as the indicator of intracellular Ca2+ concentration.

[2] = molecular target: T2, orexin-2 receptor (hOX2R) (Homo sapiens, UniProt O43614); experiment: Measurement of orexin antagonistic activity (intracellular Ca2+ fluorescence, FDSS) on hOX2R; format: cell-based; details: CHO cells forcibly expressing hOX2R; Fluo-4AM; ligand peptide (substituted human orexin-A) 3 nM; compound preincubated 30 minutes; read-out: IC50 Value OX2
T2 construct: expressed in transfected cells; host or cells: Chinese hamster ovary (CHO) cells
T2 sequence (O43614 1-444): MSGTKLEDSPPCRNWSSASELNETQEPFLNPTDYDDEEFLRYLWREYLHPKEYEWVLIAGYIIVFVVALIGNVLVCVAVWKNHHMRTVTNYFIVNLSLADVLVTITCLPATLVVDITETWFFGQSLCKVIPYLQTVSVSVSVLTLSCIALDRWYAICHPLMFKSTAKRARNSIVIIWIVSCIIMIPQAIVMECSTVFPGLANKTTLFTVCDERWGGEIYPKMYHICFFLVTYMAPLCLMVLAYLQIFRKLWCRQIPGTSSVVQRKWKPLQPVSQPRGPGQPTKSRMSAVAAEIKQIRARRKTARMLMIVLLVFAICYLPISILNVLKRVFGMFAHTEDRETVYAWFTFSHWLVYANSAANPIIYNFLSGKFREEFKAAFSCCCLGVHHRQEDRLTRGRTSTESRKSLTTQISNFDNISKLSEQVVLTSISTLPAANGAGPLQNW
Description: as §1, §2

IC50 [1] [nM]	IC50 [2] [nM]	Structure (SMILES)
1.4	13.8	CCN(C(=O)c1nc(C)ccc1-n1nccn1)[C@@H](C)Cn1cc(-c2ccc(F)c(F)c2)cn1 [Example 27, N-{(2S)-1-[4-(3,4-Difluorophenyl)-1H-pyrazol-1-yl]propan-2-yl}-N-ethyl-6-methyl-3-(2H-1,2,3-triazol-2-yl) pyridine-2-carboxamide]
6.8	43.1	CCN(C(=O)c1ccccc1-c1ncccn1)[C@@H](C)Cn1ccc(-c2ccc(F)cn2)n1 [Example 7, N-Ethyl-N-{(2S)-1-[3-(5-fluoropyridin-2-yl)-1H-pyrazol-1-yl]propan-2-yl}-2-(pyrirnidin-2-yl) benzamide]
23.7	2070	Cc1ccc(-n2nccn2)c(C(=O)N(CCS(C)(=O)=O)[C@@H](C)Cn2cc(-c3ccc(F)cc3)nn2)c1 [Example 90, N-{(2S)-1-[4-(4-Fluorophenyl)-1H-1,2,3-triazol-1-yl]propan-2-yl}-5-methyl-N-[2-(methylsulfonyl)ethyl]-2-(2H-1,2,3-triazol-2-yl)benzamide]
1.3	7	CCN(C(=O)c1ccc(F)cc1-c1ncccn1)[C@@H](C)Cn1ccc(-c2ccc(F)cc2)n1 [Example 14, N-Ethyl-4-fluoro-N-[(2S)-1-[3-(4-fluorophenyl)-1H-pyrazol-1-yl]propan-2-yl)-2-(pyrimidin-2-yl)benzamide]
10.1	25.6	Cc1ccc(-n2nccn2)c(C(=O)N(C)[C@@H](C)Cn2cc(-c3ccc(F)c(F)c3)cn2)n1 [Example 29, N-{(2S)-1-[4-(3,4-Difluorophenyl)-1H-pyrazol-1-yl]propan-2-yl}-N,6-dimethyl-3-(2H-1,2,3-triazol-2-yl)pyridine-2-carboxamide]
5	602	CCN(C(=O)c1ccccc1-n1nccn1)[C@@H](C)Cc1noc(-c2ccc(F)cn2)n1 [Example 56, N-Ethyl-N-{(2S)-1-[5-(5-fluoropyridin-2-yl)-1,2,4-oxadiazol-3-yl]propan-2-yl}-2-(2H-1,2,3-triazol-2-yl)benzamide]
1.1	21.8	Cc1ccc(-n2nccn2)c(C(=O)N(CCO)[C@@H](C)Cn2ccc(-c3ccc(F)cc3)n2)c1 [Example 42, N-{(2S)-1-[3-(4-Fluorophenyl)-1H-pyrazol-1-yl]propan-2-yl}-N-(2-hydroxyethyl)-5-methyl-2-(2H-1,2,3-triazol-2-yl)benzamide]
5.1	1080	CCN(C(=O)c1cc(F)ccc1-n1nccn1)[C@@H](C)Cc1noc(-c2ccc(F)cn2)n1 [Example 57, N-Ethyl-5-fluoro-N-{(2S)-1-[5-(5-fluoropyridin-2-yl)-1,2,4-oxadiazol-3-yl]propan-2-yl}-2-(2H-1,2,3-triazol-2-yl) benzamide]
1.3	25.9	Cc1ccc(-n2nccn2)c(C(=O)N(CCO)[C@@H](C)Cn2ccc(-c3ccc(F)cn3)n2)c1 [Example 44, N-{(2S)-1-[3-(5-Fluoropyridin-2-yl)-1H-pyrazol-1-yl]propan-2-yl}-N-(2-hydroxyethyl)-5-methyl-2-(2H-1,2,3-triazol-2-yl)benzamide]
0.8	9.5	CCN(C(=O)c1cc(C)ccc1-n1nccn1)[C@@H](C)Cc1noc(-c2ccc(F)cn2)n1 [Example 47, N-Ethyl-N-{(2S)-1-[5-(5-fluoropyridin-2-yl)-1,2,4-oxadiazol-3-yl]propan-2-yl}-5-methyl-2-(2H-1,2,3-triazol-2-yl) benzamide]
1.4	1.7	CCN(C(=O)c1cc(C)ccc1-n1nccn1)C(C)Cc1ccn(-c2ccc(F)cn2)n1 (centres unmarked) [Example 75, N-Ethyl-N-{1-[1-(5-fluoropyridin-2-yl)-1H-pyrazol-3-yl]propan-2-yl}-5-methyl-2-(2H-1,2,3-triazol-2-yl) benzamide]
0.8	16.8	CCN(C(=O)c1cc(F)ccc1-n1nccn1)[C@@H](C)Cc1noc(-c2ccc(F)cc2)n1 [Example 50, N-Ethyl-5-fluoro-N-{(2S)-1-[5-(4-fluorophenyl)-1,2,4-oxadiazol-3-yl]propan-2-yl}-2-(2H-1,2,3-triazol-2-yl) benzamide]
1.3	27.5	CCN(C(=O)c1cc(C)ccc1-n1nccn1)[C@@H](C)Cn1nnc(-c2ccc(F)cn2)n1 [Example 85, N-Ethyl-N-{(2S)-1-[5-(5-fluoropyridin-2-yl)-2H-tetrazol-2-yl]propan-2-yl}-5-methyl-2-(2H-1,2,3-triazol-2-yl)benzamide]
1	47.9	Cc1ccc(-n2nccn2)c(C(=O)N(CCO)[C@@H](C)Cn2nnc(-c3ccc(F)cc3)n2)c1 [Example 64, N-{(2S)-1-[5-(4-Fluorophenyl)-2H-tetrazol-2-yl]propan-2-yl}-N-(2-hydroxyethyl)-5-methyl-2-(2H-1,2,3-triazol-2-yl)benzamide]
160	8370	CCN(C(=O)c1cc(C)ccc1-n1nccn1)[C@@H](C)Cn1cc(-c2ccc(OC)cc2)nn1 [Example 96, N-Ethyl-N-{(2S)-1-[4-(4-methoxyphenyl)-1H-1,2,3-triazol-1-yl]propan-2-yl}-5-methyl-2-(2H-1,2,3-triazol-2-yl)benzamide]
63.6	427	CCN(C(=O)c1cc(C)ccc1-c1ncccn1)[C@@H](C)Cn1cc(-c2ccc(F)cn2)nn1 [Example 79, N-Ethyl-N-{(2S)-1-[4-(5-fluoropyridin-2-yl)-1H-1,2,3-triazol-1-yl]propan-2-y}-5-methyl-2-(pyrimidin-2-yl)benzamide]
0.6	17.7	CCN(C(=O)c1cc(C)ccc1-n1nccn1)[C@@H](C)Cn1cc(-c2ccccc2)nn1 [Example 95, N-Ethyl-5-methyl-N-[(2S)-1-(4-phenyl-1H-1,2,3-triazol-1-yl)propan-2-yl]-2-(2H-1,2,3-triazol-2-yl)benzamide]
364	580	CCN(C(=O)c1cc(F)ccc1-c1ncccn1)[C@H](C)Cn1ccc(-c2ccc(F)cc2)n1 [Example 12, N-Ethyl-5-fluoro-N-[(2R)-1-[3-(4-fluorophenyl)-1H-pyrazol-1-yl]propan-2-yl]-2-(pyrimidin-2-yl)benzamide]
3.5	13.6	Cc1ccc(-n2nccn2)c(C(=O)N(CCO)[C@@H](C)Cn2cc(-c3ccc(F)cc3)cn2)c1 [Example 43, N-{(2S)-1-[4-(4-Fluorophenyl)-1H-pyrazol-1-yl]propan-2-yl}-N-(2-hydroxyethyl)-5-methyl-2-(2H-1,2,3-triazol-2-yl)benzamide]
1.7	67	C[C@@H](Cn1ccc(-c2ccc(F)cn2)n1)N(C)C(=O)c1ccccc1-c1ncccn1 [Example 4, N-[(2S)-1-[3-(5-Fluoropyridin-2-yl)-1H-pyrazol-1-yl]propan-2-yl]-N-methyl-2-(pyrimidin-2-yl)benzamide]
0.2	14.4	CCN(C(=O)c1cc(F)ccc1-c1ncccn1)[C@@H](C)Cn1ccc(-c2ccc(F)cc2)n1 [Example 11, N-Ethyl-5-fluoro-N-[(2S)-1-[3-(4-fluorophenyl)-1H-pyrazol-1-yl]propan-2-yl}-2-(pyrimidin-2-yl) benzamide]
0.8	33.7	CCN(C(=O)c1cc(C)ccc1-c1ncccn1)[C@@H](C)Cn1nnc(-c2ccc(F)cc2)n1 [Example 68, N-Ethyl-N-{(2S)-1-[5-(4-fluorophenyl)-2H-tetrazol-2-yl]propan-2-yl}-5-methyl-2-(pyrimidin-2-yl)benzamide]
